Here are results for one compound from US20240309018A1, “THIAZOLE-LACTAM-SPIROHETEROCYCLIC COMPOUNDS AND APPLICATIONS THEREOF” (D3 BIO (WUXI) CO., LTD, priority 2021, published 2024).

The structures appear in SMILES notation.

The test system of one data set is mouse plasma albumin. In words: Plasma protein binding (ultracentrifugation), mouse. Further: tested at 0.2 µM. The data set is classed as in vitro ADME. How it is done:
The binding degree of the assay compound to human/mouse/rat/canine/monkey plasma albumin was studied.
• 1) Matrix preparation: on the day of the assay, plasma was thawed in cold water and centrifuged at 3220 rpm for 5 min to remove all clots. The pH of the resulting plasma was measured and adjusted to 7.4±0.1 using 1% phosphoric acid or IN sodium hydroxide as needed. • 2) Dilution procedure for the assay compound: the assay compound was dissolved in dimethyl sulfoxide (DMSO) to prepare stock solutions with concentrations of 10 mM and 2 mM, respectively. A 40 μM working solution was prepared by diluting 2 μL of stock solution (2 mM) with 98 μL of DMSO. A 400 μM working solution of the control compound was prepared by diluting 10 μL of stock solution with 240 μL of DMSO. The working solution of the compound (5 μL) was mixed well with a blank matrix (995 μL) at a ratio of 1:200 to prepare a loading matrix.
• a) An equal volume of 30 μL of loading matrix (n=2) was transferred to a sample collection plate to prepare a time 0 (TO) sample for residue determination. The sample was immediately matched with the corresponding blank buffer to a final volume of 60 μL, and the volume ratio of plasma to buffer in each well was 1:1. […] The mixture was centrifuged at 4000 rpm for 20 min and 100 μL of supernatant from each sample was analyzed by LC-MS/MS.

Another data set concerns the target ERK2 kinase (Homo sapiens (Human), UniProt P28482). Briefly: ERK2 in vitro kinase activity assay (33P-ATP, MBP substrate, filter-binding). It counts as biochemical. How it is done: The ability of the compound to inhibit ERK1 and ERK2 kinase activity was measured.
20 mM Hepes (pH 7.5), 10 mM MgCl2, 1 mM ethylenebis(oxyethylenenitrilo)tetraacetic acid (EGTA), 0.02% Brij35, 0.02 mg/mL bovine serum albumin (BSA), 0.1 mM Na3VO4, 2 mM dithiothreitol (DTT), 1% DMSO.
The assay compound was dissolved in 100% DMSO to prepare a stock solution of specific concentration. The compound was serially diluted in DMSO solution using Integra Viaflo Assist smart pipette.
• 1) The substrate MBP was prepared in freshly prepared reaction buffer; • 2) ERK1 (or ERK2) kinase was added to the above-mentioned MBP solution and mixed gently; • 3) The compound dissolved in 100% DMSO was added to the kinase reaction system using ultrasound technology (Echo550; nanoliter range), and the mixture was incubated at room temperature for 20 minutes; • 4) 33P-ATP (specific concentration of […]) was added to the reaction system, and the reaction was started at this time; • 5) The mixture was incubated at room temperature for 2 hours; • 6) The amount of radioactivity was detected by filter-binding method; • 7) ERK1 (or ERK2) kinase activity was calculated as the ratio of the remaining kinase activity in the assay sample to the kinase activity of the control group (treated by DMSO). Curve was fitted using Prism (GraphPad software) and IC50 values were calculated. • 5.

Sequence of ERK2 kinase (P28482 whole entry): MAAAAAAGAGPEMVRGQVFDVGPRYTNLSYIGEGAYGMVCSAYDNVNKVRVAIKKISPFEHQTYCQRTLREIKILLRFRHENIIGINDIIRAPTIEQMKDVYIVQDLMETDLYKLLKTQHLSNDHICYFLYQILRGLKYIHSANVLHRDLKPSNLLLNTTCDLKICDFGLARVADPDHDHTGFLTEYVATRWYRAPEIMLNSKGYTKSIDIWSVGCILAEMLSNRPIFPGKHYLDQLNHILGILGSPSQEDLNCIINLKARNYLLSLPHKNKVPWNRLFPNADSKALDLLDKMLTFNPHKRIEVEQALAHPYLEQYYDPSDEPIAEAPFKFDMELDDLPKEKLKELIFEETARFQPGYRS

Broadly, the IC50 is the concentration needed to halve the response being measured. Higher therefore signals weaker potency in that assay. Regarding `Cc1cccc(CN2C(=O)c3nc(-c4nc(Nc5ccnn5C)ncc4C)sc3C23COC3)n1` [WX001], in the data set with mouse plasma albumin, the “Plasma protein binding rate (unbound %)” value is on record as 11.7%. Also, on ERK2 kinase, the half-inhibitory concentration (IC50) came out at 0.54 nM.
